*1 amine or outer side, *2 acyl side, *3 side chain or, on linkers, in order; H or OH if unused. Where a SMILES comes first, the peptide text is derived from it. Bridges are numbered along the chain shown (N, C = ends). [ ]: non-standard residue; d: D form. The star is where a group is joined. ξ: configuration not given here. Phe(4-CONH2) = NC(=O)c1ccc(C[C@H](N)C(=O)O)cc1; Phe(4-COOH) = N[C@@H](Cc1ccc(C(=O)O)cc1)C(=O)O; Bip = N[C@@H](Cc1ccc(-c2ccccc2)cc1)C(=O)O; Phe(3-Me) = Cc1cccc(C[C@H](N)C(=O)O)c1; Ethylenediamine = C(CN[*:2])N[*:1]; Val(3-OH) = CC(C)(O)[C@H](N)C(=O)O; 3Pal = N[C@@H](Cc1cccnc1)C(=O)O; 4Pal = N[C@@H](Cc1ccncc1)C(=O)O; Cha = N[C@@H](CC1CCCCC1)C(=O)O; Cit = NC(=O)NCCC[C@H](N)C(=O)O; Ile(3ξ) = CCC(C)[C@H](N)C(=O)O; dCha = N[C@H](CC1CCCCC1)C(=O)O; Thr(3ξ) = CC(O)[C@H](N)C(=O)O; dOrn = NCCC[C@@H](N)C(=O)O; Carboxymethyl = O=C(O)C*; Orn = NCCC[C@H](N)C(=O)O; Pra = C#CC[C@H](N)C(=O)O; dDap = NC[C@@H](N)C(=O)O; Dab = NCC[C@H](N)C(=O)O; Dap = NC[C@H](N)C(=O)O; ξPra = C#CCC(N)C(=O)O; Piv = CC(C)(C)C(=O)*
target: T1, human PD-1 / PD-L1-Ig binding on Jurkat cell line over-expressing human PD-1 (Jurkat-PD-1) (Homo sapiens, UniProt Q15116); test: Jurkat-PD-1 Cell Binding High-Content Screening Assay (CBA); assay type: cell-based; details: Jurkat-PD-1 cells, PE-labeled PD-L1-Ig 20 nM final; read-out: Jurkat HPD1_PDL1 IC50
T1 construct: expressed in transfected cells; host or cells: Jurkat
T1 sequence (Q15116 25-288): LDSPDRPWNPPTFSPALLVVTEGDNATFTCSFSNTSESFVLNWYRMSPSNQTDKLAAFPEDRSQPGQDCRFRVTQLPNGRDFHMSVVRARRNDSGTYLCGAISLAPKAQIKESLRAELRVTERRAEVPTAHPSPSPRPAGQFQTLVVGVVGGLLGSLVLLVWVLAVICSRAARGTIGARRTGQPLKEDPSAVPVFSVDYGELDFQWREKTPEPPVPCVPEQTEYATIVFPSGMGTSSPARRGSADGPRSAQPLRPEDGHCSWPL
In short: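 Jurkat-hPD-1 cells in DMEM with 10% fetal calf serum receive test compound and are held at 37° C for 2 h. PE-labeled PD-L1-Ig is added at 20 nM final and left for 1 hour. Cells are then fixed and Hoechst-stained, and binding is measured by imaging.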

Row | Compound | IC50
1 | CC[C@H](C)[C@@H]1NC(=O)[C@H](CC2CCCCC2)NC(=O)[C@H](CCN)NC(=O)[C@@H](CC(C)C)NC(=O)[C@H](CCCN)NC(=O)[C@H](CCCNC(N)=O)NC(=O)[C@H](Cc2ccc(-c3ccccc3)cc2)NC(=O)[C@H](C(C)C)NC(=O)[C@H](Cc2c[nH]c3ccccc23)NC(=O)[C@H](CC(=O)O)NC(=O)[C@H](Cc2ccc(OCC(=O)O)cc2)NC(=O)[C@H](CN)NC(=O)CSC[C@@H](C(=O)N[C@@H](C)C(N)=O)NC(=O)[C@H]([C@@H](C)O)NC1=O [Compound 1314] ({CH2CO}-[Dap]Y(Carboxymethyl)DWV[Bip][Cit][Orn][dL][Dab][Cha]ITCA-NH2; thioether N-14) | 9 nM
2 | CC(C)C[C@@H]1NC(=O)[C@H](CCN)NC(=O)[C@@H](CC(C)C)NC(=O)[C@H](CCCN)NC(=O)[C@H](C(C)C)NC(=O)[C@H](Cc2ccc(-c3ccccc3)cc2)NC(=O)[C@H](C(C)C)NC(=O)[C@H](Cc2c[nH]c3ccccc23)NC(=O)[C@H](CC(=O)O)NC(=O)[C@H](Cc2ccc(C(=O)O)cc2)NC(=O)[C@H](Cc2cccnc2)NC(=O)CSC[C@@H](C(=O)N[C@@H](C)C(N)=O)NC(=O)[C@H]([C@@H](C)O)NC(=O)[C@H](C(C)C)NC1=O [Compound 1049] ({CH2CO}-[3Pal][Phe(4-COOH)]DWV[Bip]V[Orn][dL][Dab]LVTCA-NH2; thioether N-14) | 7.2 nM
3 | CC(C)[C@@H]1NC(=O)[C@H](Cc2c[nH]c3ccccc23)NC(=O)[C@H](CC(=O)O)NC(=O)[C@H](Cc2ccc(OCC(=O)O)cc2)NC(=O)[C@H](CN)NC(=O)CSC[C@@H](C(=O)N[C@@H](C)C(N)=O)NC(=O)[C@H]([C@@H](C)O)NC(=O)[C@H](C(C)C)NC(=O)[C@H](CC2CCCCC2)NC(=O)[C@H](CCN)NC(=O)[C@@H](CC2CCCCC2)NC(=O)[C@H](CCCN)NC(=O)[C@H](CCCNC(N)=O)NC(=O)[C@H](Cc2ccc(-c3ccccc3)cc2)NC1=O [Compound 1643] ({CH2CO}-[Dap]Y(Carboxymethyl)DWV[Bip][Cit][Orn][dCha][Dab][Cha]VTCA-NH2; thioether N-14) | 14.5 nM
4 | C#CCC(NC(=O)[C@H](CCCCN)NC(=O)[C@@H]1CSCC(=O)N[C@@H](Cc2ccncc2)C(=O)N[C@@H](Cc2ccc(OCC(=O)O)cc2)C(=O)N[C@@H](CC(=O)O)C(=O)N[C@@H](Cc2c[nH]c3ccccc23)C(=O)N[C@@H](C(C)C)C(=O)N[C@@H](Cc2ccc(-c3ccccc3)cc2)C(=O)N[C@@H]([C@@H](C)CC)C(=O)N[C@@H](CCCN)C(=O)N[C@H](CC(C)C)C(=O)N[C@@H](CCN)C(=O)N[C@@H](CC(C)C)C(=O)N[C@@H](C(C)C)C(=O)N[C@@H]([C@@H](C)O)C(=O)N1)C(N)=O (stereo partly drawn) [Compound 1761] ({CH2CO}-[4Pal]Y(Carboxymethyl)DWV[Bip]I[Orn][dL][Dab]LVTCK[ξPra]-NH2; thioether N-14) | 13.9 nM
5 | CC(C)C[C@@H]1NC(=O)[C@H](CCCNC(=N)N)NC(=O)[C@@H](CC(C)C)NC(=O)[C@H](C)NC(=O)[C@H](CCCNC(=N)N)NC(=O)[C@H](Cc2ccc(-c3ccccc3)cc2)NC(=O)[C@H](C(C)C)NC(=O)[C@H](Cc2c[nH]c3ccccc23)NC(=O)[C@H](CC(=O)O)NC(=O)[C@H](Cc2ccc(O)cc2)NC(=O)[C@H](CC(N)=O)NC(=O)CSC[C@@H](C(=O)N[C@@H](C)C(N)=O)NC(=O)[C@H]([C@@H](C)O)NC(=O)[C@H](C(C)C)NC1=O [Compound 1006] ({CH2CO}-NYDWV[Bip]RA[dL]RLVTCA-NH2; thioether N-14) | 98.1 nM
6 | Cc1cccc(C[C@@H]2NC(=O)[C@H](CC(=O)O)NC(=O)[C@H](Cc3ccc(C(=O)O)cc3)NC(=O)[C@H](Cc3ccncc3)NC(=O)CSC[C@@H](C(=O)N[C@@H](C)C(N)=O)NC(=O)[C@H]([C@@H](C)O)NC(=O)[C@H](C(C)C)NC(=O)[C@H](CC3CCCCC3)NC(=O)[C@H](CCN)NC(=O)[C@@H](CC(C)C)NC(=O)[C@H](CCCN)NC(=O)[C@H](CCC(=O)O)NC(=O)[C@H](Cc3ccc(-c4ccccc4)cc3)NC(=O)[C@H](C(C)C)NC2=O)c1 [Compound 1417] | 7 nM

Next, values leading:

Row | IC50 | Compound
7 | 42.1 nM | CC(C)C[C@@H]1NC(=O)[C@H](Cc2c[nH]c3ccccc23)NC(=O)[C@H](CC(=O)O)NC(=O)[C@H](Cc2ccc(O)cc2)NC(=O)[C@H](Cc2ccccc2)NC(=O)CSC[C@@H](C(=O)N[C@@H](C)C(N)=O)NC(=O)[C@H](CO)NC(=O)[C@H](C(C)C)NC(=O)[C@H](CC(C)C)NC(=O)[C@H](CC(N)=O)NC(=O)[C@@H](C)NC(=O)[C@@H](CCCN)NC(=O)[C@H](C(C)C)NC(=O)[C@H](Cc2ccc(-c3ccccc3)cc2)NC1=O [Compound 2001] ({CH2CO}-FYDWL[Bip]V[dOrn][dA]NLVSCA-NH2; thioether N-14)
8 | 19.3 nM | C#CC[C@H](NC(=O)CNC(=O)[C@@H]1CSCC(=O)N[C@@H](CN)C(=O)N[C@@H](Cc2ccc(OCC(=O)O)cc2)C(=O)N[C@@H](CC(=O)O)C(=O)N[C@@H](Cc2cccc(C)c2)C(=O)N[C@@H](Cc2ccc(OCC(=O)O)cc2)C(=O)N[C@@H](Cc2ccc(-c3ccccc3)cc2)C(=O)N[C@@H](Cc2ccc(OCC(=O)O)cc2)C(=O)N[C@@H](CCCN)C(=O)N[C@H](CC(C)C)C(=O)N[C@@H](CCN)C(=O)N[C@@H](CC2CCCCC2)C(=O)N[C@@H](C(C)(C)O)C(=O)N[C@@H](CO)C(=O)N1)C(N)=O [Compound 2321] ({CH2CO}-[Dap]Y(Carboxymethyl)D[Phe(3-Me)]Y(Carboxymethyl)[Bip]Y(Carboxymethyl)[Orn][dL][Dab][Cha][Val(3-OH)]SCG[Pra]-NH2; thioether N-14)
9 | 39.4 nM | CC(C)C[C@@H]1NC(=O)[C@H](Cc2c[nH]c3ccccc23)NC(=O)[C@H](CC(=O)O)NC(=O)[C@H](Cc2ccc(O)cc2)NC(=O)[C@H](Cc2ccccc2)NC(=O)CSC[C@@H](C(=O)N[C@@H](C)C(N)=O)NC(=O)[C@H](CO)NC(=O)[C@H](C(C)C)NC(=O)[C@H](CC(C)C)NC(=O)[C@H](CC(N)=O)NC(=O)[C@@H](C)NC(=O)[C@@H](CCCCN)NC(=O)[C@H](C(C)C)NC(=O)[C@H](Cc2ccc(-c3ccccc3)cc2)NC1=O [Compound 2000] ({CH2CO}-FYDWL[Bip]V[dK][dA]NLVSCA-NH2; thioether N-14)
10 | 6.5 nM | Cc1cccc(C[C@@H]2NC(=O)[C@H](CC(=O)O)NC(=O)[C@H](Cc3ccc(OCC(=O)O)cc3)NC(=O)[C@H](CN)NC(=O)CSC[C@@H](C(=O)N[C@@H](CCNC(=O)C(C)(C)C)C(N)=O)NC(=O)[C@H](CCCN)NC(=O)[C@H](C(C)C)NC(=O)[C@H](CC3CCCCC3)NC(=O)[C@H](CCN)NC(=O)[C@@H](CC(C)C)NC(=O)[C@H](CCCN)NC(=O)[C@H](Cc3ccc(O)cc3)NC(=O)[C@H](Cc3ccc(-c4ccccc4)cc3)NC(=O)[C@H](Cc3ccc(O)cc3)NC2=O)c1 [Compound 2042] ({CH2CO}-[Dap]Y(Carboxymethyl)D[Phe(3-Me)]Y[Bip]Y[Orn][dL][Dab][Cha]V[Orn]C[Dab](Piv)-NH2; thioether N-14)
11 | 54.1 nM | CC(C)C[C@@H]1NC(=O)[C@H](Cc2c[nH]c3ccccc23)NC(=O)[C@H](CC(=O)O)NC(=O)[C@H](Cc2ccc(O)cc2)NC(=O)[C@H](Cc2ccccc2)NC(=O)CSC[C@@H](C(=O)N[C@@H](C)C(N)=O)NC(=O)[C@H](CO)NC(=O)[C@H](C(C)C)NC(=O)[C@H](CC(C)C)NC(=O)[C@H](CC(N)=O)NC(=O)[C@@H](C)NC(=O)[C@@H](CN)NC(=O)[C@H](C(C)C)NC(=O)[C@H](Cc2ccc(-c3ccccc3)cc2)NC1=O [Compound 2002] ({CH2CO}-FYDWL[Bip]V[dDap][dA]NLVSCA-NH2; thioether N-14)
12 | 7.6 nM | Cc1cccc(C[C@@H]2NC(=O)[C@H](CC(=O)O)NC(=O)[C@H](Cc3ccc(C(=O)O)cc3)NC(=O)[C@H](Cc3ccncc3)NC(=O)CSC[C@@H](C(=O)N[C@@H](CO)C(N)=O)NC(=O)[C@H]([C@@H](C)O)NC(=O)[C@H](C(C)C)NC(=O)[C@H](CC3CCCCC3)NC(=O)[C@H](CCN)NC(=O)[C@@H](CC(C)C)NC(=O)[C@H](CCCN)NC(=O)[C@H](Cc3ccc(OCC(=O)O)cc3)NC(=O)[C@H](Cc3ccc(-c4ccccc4)cc3)NC(=O)[C@H](Cc3ccc(OCC(=O)O)cc3)NC2=O)c1 [Compound 2310] ({CH2CO}-[4Pal][Phe(4-COOH)]D[Phe(3-Me)]Y(Carboxymethyl)[Bip]Y(Carboxymethyl)[Orn][dL][Dab][Cha]VTCS-NH2; thioether N-14)
13 | 15.2 nM | Cc1cccc(C[C@@H]2NC(=O)[C@H](CC(=O)O)NC(=O)[C@H](Cc3ccc(OCC(=O)O)cc3)NC(=O)[C@H](C(C)O)NC(=O)CSC[C@@H](C(=O)N[C@@H](CN)C(=O)NCCN)NC(=O)[C@H](C(C)O)NC(=O)[C@H](C(C)(C)O)NC(=O)[C@H](CC3CCCCC3)NC(=O)[C@H](CCN)NC(=O)[C@@H](CC(C)C)NC(=O)[C@H](CCCN)NC(=O)[C@H](Cc3ccc(O)cc3)NC(=O)[C@H](Cc3ccc(-c4ccccc4)cc3)NC(=O)[C@H](Cc3ccc(C(N)=O)cc3)NC2=O)c1 (stereo partly drawn) [Compound 2664] ({CH2CO}-[Thr(3ξ)]Y(Carboxymethyl)D[Phe(3-Me)][Phe(4-CONH2)][Bip]Y[Orn][dL][Dab][Cha][Val(3-OH)][Thr(3ξ)]C[Dap]-Ethylenediamine; thioether N-14)

same assay, conditions: read-out: Jurkat HPD1_PDL1 IC50; Jurkat-PD-1 cells, PE-labeled PD-L1-Ig 20 nM final

Row | Compound | IC50
14 | CCC(C)[C@@H]1NC(=O)[C@H](Cc2ccc(-c3ccccc3)cc2)NC(=O)[C@H](CC(C)C)NC(=O)[C@H](Cc2c[nH]c3ccccc23)NC(=O)[C@H](CC(=O)O)NC(=O)[C@H](Cc2ccc(OCC(=O)O)cc2)NC(=O)[C@H](Cc2ccncc2)NC(=O)CSC[C@@H](C(=O)N[C@@H](CC(N)=O)C(=O)O)NC(=O)[C@H](CO)NC(=O)[C@H](C(C)C)NC(=O)[C@H](CC(C)C)NC(=O)[C@H](CCN)NC(=O)[C@@H](CC(C)C)NC(=O)[C@H](CCCN)NC1=O (stereo partly drawn) [Compound 2582] ({CH2CO}-[4Pal]Y(Carboxymethyl)DWL[Bip][Ile(3ξ)][Orn][dL][Dab]LVSCN-OH; thioether N-14) | 9.8 nM

Reference: US20250163104A1, “MACROCYCLIC IMMUNOMODULATORS” (priority 2021, published 2025)
